Experimental data from US5066817A, “DC115A compounds produced by streptomyces sp” (Kyowa Hakko Kogyo Co., Ltd., priority 1989, dated 1991).
≈ marks a conversion by molar mass, not a printed value.

How the values were obtained:
[1] = system: Bacillus subtilis No. 10707; assay: Antibacterial activity, agar dilution method (pH 7.0); type: cell-based; conditions: read-out: Minimum Inhibitory Concentration
Procedure: (§1) The minimum inhibitory concentration (MIC) against various bacteria was determined by the agar dilution method (pH 7.0).

Escherichia coli ATCC 26 = assay: as above; type: cell-based; conditions: ATCC26, read-out: Minimum Inhibitory Concentration
Procedure: as §1

[2] = system: Klebsiella pneumoniae ATCC 10031; assay: as above; type: cell-based; conditions: ATCC10031, read-out: Minimum Inhibitory Concentration
Procedure: as §1

[3] = system: Salmonella typhi ATCC 9992; assay: as above; type: cell-based; conditions: Salmonella enterica, pH 7, read-out: Minimum Inhibitory Concentration
Procedure: as §1

[4] = system: Staphylococcus aureus ATCC 6538P; assay: as above; type: cell-based; conditions: ATCC6538P, read-out: Minimum Inhibitory Concentration
Procedure: as §1

T24 cells = assay: Growth inhibition against T24 cells (Neutral Red staining); type: cell-based; conditions: Homo sapiens, T-24, 72 hours
Procedure: (§2) A T24 cell suspension ([…]) prepared by suspending T24 cells in a medium comprising F10 medium (GIBCO Co., Ltd.), […] fetal calf serum, 100 units/ml penicillin and 100 μg/ml streptomycin (hereinafter referred to as medium A) was put into wells of a 96-well microtiter plate in an amount of 0.1 ml per well. After incubation at 37° C. for 20 hours in a […], 0.05 ml of a sample appropriately diluted with medium A was added to each well. The cells were further cultured at 37° C. for 72 hours in the CO2 -incubator and the culture supernatant was removed. To the residue was added a medium comprising medium A and 0.02% Neutral Red in an amount of 0.1 ml per well, followed by culturing at 37° C. for one hour in the CO2 -incubator, whereby the cells were stained. After the culture supernatant was removed, the residue was washed once with physiological saline.
(§3) Then, the pigment was extracted with 0.001N hydrochloric acid/30% ethanol and absorbance at 550 nm was measured with a microplate reader. By comparing the absorbance of intact cells with those of the cells treated with a test compound at known concentrations, the concentration of the test compound at which the growth of the cells is inhibited by 50% (IC50) was determined.

HeLaS3 cells = assay: Growth inhibition against HeLaS3 cells; type: cell-based; conditions: Homo sapiens, HeLa S3, 72 hours
Procedure: as §2, §3
(§4) IC50 was determined in the same manner as in the case of T24 cells except that a suspension of HeLaS3 cells (3×10^4 cells/ml) prepared by suspending HeLaS3 cell medium comprising MEM medium (Nissui Pharmaceutical Co., Ltd.) and 2 mM glutamine was used.

tumor cells = assay: Growth inhibition of tumor cells, overall result of (B) and (C); type: cell-based; conditions: from the results of (B) and (C)
Procedure: as §2, §3, §4

Solubility = type: physicochemical
[5] = chloroform, dimethylsulfoxide, methanol, ethyl acetate and acetone

SMILES	MIC [1] [µg/mL]	MIC (Escherichia coli ATCC 26) [µg/mL]	MIC [2] [µg/mL]	MIC [3] [µg/mL]	MIC [4] [µg/mL]	IC50 (T24 cells) [µg/mL]	IC50 (HeLaS3 cells) [µg/mL]	inhibition of growth of tumor cells (tumor cells)	Solubility (Solubility; [5])	Solubility (Solubility; water and n-hexane)
CC=CC1OC1(C)c1cc(=O)c2c(CC(=O)O)cc3cc4c(c(O)c3c2o1)C(=O)CCC4OC(C)=O (stereo not drawn) [DC115A3]	1.3 (≈ 2.64 µM)	21 (≈ 42.6 µM)	5.2 (≈ 10.6 µM)	83 (≈ 169 µM)	0.3 (≈ 0.609 µM)	0.14 (≈ 0.284 µM)	0.42 (≈ 0.853 µM)	inhibit the growth of tumor cells	Soluble	sparingly soluble
CCCC1OC1(C)c1cc(=O)c2c(CC(=O)O)cc3cc4c(c(O)c3c2o1)C(=O)CCC4OC(C)=O (stereo not drawn) [DC115A1]	10 (≈ 20.2 µM)	> 100	> 100	> 100	5.2 (≈ 10.5 µM)	0.17 (≈ 0.344 µM)	0.22 (≈ 0.445 µM)	inhibit the growth of tumor cells	Soluble	sparingly soluble
CCC1OC1(C)c1cc(=O)c2c(CC(=O)O)cc3cc4c(c(O)c3c2o1)C(=O)CCC4OC(C)=O (stereo not drawn) [DC115A2]	10 (≈ 20.8 µM)	83 (≈ 173 µM)	10 (≈ 20.8 µM)	> 100	2.6 (≈ 5.41 µM)	0.11 (≈ 0.229 µM)	0.19 (≈ 0.395 µM)	inhibit the growth of tumor cells	Soluble	sparingly soluble
